Results published in patent publication US20050214413A1, “Methods and compositions for modified release of nutritional supplements” (Mannatech, Inc., priority 2003, published 2005).
Values joined by “and” are separate entries in the source; they are usually repeats but may differ in a detail not shown here. Equal entries are not always repeated. “Also recorded” adds a separate entry of the source.

What was measured:
Format in all cases: biochemical
[1] = ORAC(o) assay (dissolved oxygen, oxygen radical absorbance capacity)
Experimental: Method of Measuring Antioxidant Activity. In operation, the ORAC(o) assay of the present invention was used to evaluate antioxidant compositions, combinations and the like of solutions against a target molecule (linoleic acid) with oxygen present at equilibrium with the air. A free radical initiator is added and the time it takes for oxygen to disappear is measured, yielding the rate of disappearance. Trolox® is used as the standard, and a blank is run as a control. Amount of dissolved oxygen vs. time is plotted allowing direct comparison of net areas under the curve. A detailed method is as follows: Buffers (K2HPO4 (F.W. 174.2), NaH2PO4 (FW 120.0)) were obtained from Sigma (St. Louis, Mo.). Linoleic acid 99%, Trolox® (6-hydroxy-2,5,7,8-tetramethylchroman-2-carboxylic acid) 97%, TWEEN® 20, and 2,2'-azobis (2-methylpropionamidine) dihydrochloride 97% (AAPH), were obtained from Aldrich (Milwaukee, Wis.). HPLC grade acetone was obtained from Fisher (Hampton, […] biological oxygen meter was obtained from YSI (Yellow Springs, Ohio) and used according to the manufacturer's specifications. ORAC(o) Method. The following stock solutions were used. […] Weigh 65.33 g into 500 mL of volumetric flask, and add dH20 to the mark. Concentration is 750 mM. Store 750 mM K2HPO4 stock solution in a refrigerator (2 to 8° C.) equipped with a calibrated thermometer. Target temperature is 4° C. 750 mM NaH2PO4 (FW 120.0); Weigh 45.00 g into 500 mL of volumetric flask, and add dH20 to the mark. Concentration is 750 mM. Store 750 mM NaH2PO4 stock solution in a refrigerator (2 to 8° C.) equipped with a calibrated thermometer. Target temperature is 4° C. Mix 40 ml of 750 mM K2HPO4 stock solution and 10 ml of 750 mM NaH2PO4 stock solution (4 to 1 ratio). […] Store stock solution in a refrigerator (2 to 8° C.) equipped with a calibrated thermometer. Target temperature is 4° C. Dilute mixture with dH20 (1:9) to make working solution of ORAC buffer, and measure pH. It should be 7.4. Keep covered at room temperature until ready to use. Tween Preparation. Weigh out 10 g of Tween 20, and add 90 g of deionized water. Cover and stir the mixture overnight. Tween stock solution keeps for one week. Keep on countertop. Solvent Preparation. Mix 25 mL of acetone, 25 mL of deionized water, and 25 mL of Tween 20. Use this solvent to prepare samples. Before a run is performed: the probe should be inspected for damage paying particular attention to the membrane, replace if needed. Probes should be stored with the tips in deionized water. Only one probe and one reaction chamber should be used for this assay. Run a blank and Trolox® (at 10 μg/ml or 0.03995 μmol/ml) every 8 hours. […] The sample concentration and Trolox® concentration should be the same. The dilutions are prepared by weighing out 1 mg of sample and adding 1 ml of solvent to perform the initial extraction. Shake for one hour, place 0.5 ml of the initial extraction solution in a glass scintillation vial, and then add 4.5 ml of solvent, making the first dilution. Vortex the first dilution for about 30 seconds. Its concentration is 0.1 mg/ml or 100 ppm. Take 0.5 ml of the first dilution, put it into another glass scintillation vial, and then add 4.5 ml of solvent, vortex for about 30 seconds, to yield a concentration of 0.01 mg/ml or 10 ppm. Take 0.5 ml of the vial sample and put it into another glass scintillation vial, and then add 4.5 ml of solvent, vortex for about 30 seconds, to yield a concentration of […] are placed in a 4° C. refrigerator. In a 37° C. water bath allow linoleic acid to thaw, and prepare linoleic acid solution (with minimal light) by adding 0.18 mL Tween stock solution, 0.18 mL buffer, and 0.44 mL deionized water to 70.8 mg linoleic acid. Keep solution tube wrapped in foil. Make linoleic acid solution fresh every 8 hours. To prepare the oxygen radical generator, weigh 67.8 mg of AAPH, and dissolve in 0.9 mL buffer. Keep AAPH refrigerated, it may be used for up to eight hours. Shake for 1 hour. […]

[2] = ORAC(fl) assay (fluorescein, method of Ou et al.); conditions: mixed at different ratios with quercetin, standard acetone:water
Experimental: Prior Art Method of Measuring Antioxidant Activity for Comparison. For the ORAC(fl) assay, the method of Ou et al. (Ou , B., Hampsch-Woodill, M. and Prior, R. L., J. Agric. Food Chem. 2001, 49, 4619-4626) was followed. Differences from the Ou procedure as published included the speed of the orbital shaker (Ou, 400 rpm; herein, 280 rpm), and the centrifuge speed (Ou, 14,000 rpm, 15 min; herein, 3200 rpm, 15 min and the length of the assay (Ou, 30 min; herein, 100 min). Fluorescein, sodium salt, was obtained from Aldrich (Milwaukee, Wis.). For the Ou method, a standard amount of fluorescein is added to an antioxidant product being tested, and the beginning level of fluorescence is measured. A free radical initiator is added, and the time and degree of disappearance of fluorescence are measured. Trolox®, 6-Hydroxy-2,5,7,8-tetramethylchroman-2-carboxylic Acid, is a cell-permeable, water-soluble derivative of vitamin E with potent antioxidant properties. Trolox® prevents peroxynitrite-mediated oxidative stress and apoptosis in rat thymocytes and is a synthetic antioxidant that is consistent from lot-to-lot and is used as the standard and run for comparison with each sample. A blank (control) used in calculations of the ORAC(o) value for each samples may be included in each run. Fluorescence vs. time is plotted. The blank (control) is subtracted from every curve. […]

ORAC(fl-lipo) assay = assay: ORAC(fl-lipo) assay
Description: FIGS. 12A and 12B are graphs of ORAC(fl-lipo) results using mixed-tocopherol and the relative AUC results using the solvent/water/detergent solution to dissolve the sample and detect both lipohilic and lipophobic anti-oxidant capacity.

| Structure (SMILES) | Area Under Curve (AUC), 5 Day Mean ([1]; quercetin sample 10 μg/mL) | Area under curve, 5 Run Mean ([1]; quercetin sample 10 μg/mL) | Area Under Curve (AUC), 5 day trial for precision ([1]; quercetin sample 10 μg/mL, each day average of 3 runs) | Area under curve, single day trial for precision ([1]; quercetin sample 10 μg/mL, separate runs) | Area Under Curve ([1]; sample 1 μg/ml) | Area Under Curve ([1]; sample 10 μg/ml) | Area Under Curve ([1]; sample 100 μg/ml) | Area Under Curve ([1]; sample 500 μg/ml) | Area Under Curve ([1]; sample 1000 μg/ml) | contribution to AO activity [2] | ORAC(fl-lipo) AUC, acetone:water:Tween-20 versus acetone:water (ORAC(fl-lipo) assay) |
| --- | --- | --- | --- | --- | --- | --- | --- | --- | --- | --- | --- |
| O=c1c(O)c(-c2ccc(O)c(O)c2)oc2cc(O)cc(O)c12 [quercetin] | 203.7 | 202.9 | 202.7 and 212.9 and 187 and 202.9 and 213.1 | 207.4 and 198.2 and 205 and 201.6 and 202.1 | 124.6 | 209.4 | 693.6 | 2328 | 2870 | – | – |
| Cc1c(C)c2c(c(C)c1O)CC[C@@](C)(CCC[C@H](C)CCC[C@H](C)CCCC(C)C)O2 [α-tocopherol] | – | – | – | – | – | – | – | – | – | no contribution to AO activity; also recorded: no statistically significant activity could be detected | large increase in the AUC |
